Data reported in US20200199097A1, “POMALIDOMIDE DERIVATIVE AND PREPARATION METHOD THEREFOR” (NANJING NORATECH PARMACEUTICALS CO., LTD, priority 2017, published 2020).
Values after ≈ are worked out from the molar mass of the structure shown. Where a name gives a salt, the structure may show the parent alone. Read-outs that look alike come from different tables or passages of the source.

How the values were obtained:
[1] = Determination of stability under different environmental conditions; format: physicochemical
Description: An appropriate amount of the sample was independently placed under different environmental conditions, and the percentage of the sample at day 0, 5, 10 or 30 was determined to evaluate the stability of the sample.

[2] = Determination of solubility in water at room temperature by HPLC; format: physicochemical; conditions: saturated solubility not determined; for solubility: thermodynamic from solid, read-out: Minimum solubility in water at room temperature
Description: 1 mg of compound 1 was mixed with 1 mL of water, stirred at room temperature, and completely dissolved, and the supernatant was taken as a test sample solution.
50 mg of the hydrochloride or tromethamine salt of the compound was mixed with 150 μl of water, stirred at room temperature, and completely dissolved, and the supernatant was taken as a test sample solution.
In this test, the saturated solubility of the sample is not determined, but an appropriate amount of the sample is selected to determine the solubility of the sample. […] However, the solubility of pomalidomide in water is about 0.01 mg/ml, which is much lower than the solubility of the compound of the present invention or the salt thereof.

[3] = cited from earlier work

In the case of `Nc1cccc2c1C(=O)N(C1CCC(=O)N(COP(=O)(O)O)C1=O)C2=O` (centres unmarked) [Ditromethamine salt of compound 11], the “percentage of the sample” value ([1]; Day 0) is reported as 99.9%, the “percentage of the sample” value ([1]; Day 5/40° C./60% RH/Dark) is reported as 92.8% and the “percentage of the sample” value ([1]; Day 5/60° C./75% RH/Dark) is reported as 15.6%. The “percentage of the sample” value ([1]; Day 5/Light) was 99.5%, the “percentage of the sample” value ([1]; Day 5/RT/75% RH/Dark) was 79.8% and the “percentage of the sample” value ([1]; Day 5/RT/92.5% RH/Dark) was 78.4%. The solubility [2] was greater than 300 mg/mL.
For `CC(C)[C@H](N)C(=O)OCN1C(=O)CCC(N2C(=O)c3cccc(N)c3C2=O)C1=O` (some centres unmarked) [Hydrochloride salt of compound 1], the “percentage of the sample” value ([1]; Day 0) was 97.1%, the “percentage of the sample” value ([1]; Day 10/40° C./60% RH/Dark) was 96.9% and the “percentage of the sample” value ([1]; Day 10/60° C./75% RH/Dark) was 96.4%. The “percentage of the sample” value ([1]; Day 10/Light) was 96.7%, the “percentage of the sample” value ([1]; Day 10/RT/75% RH/Dark) was 96.8% and the “percentage of the sample” value ([1]; Day 10/RT/92.5% RH/Dark) was 95.5%. The “percentage of the sample” value ([1]; Day 30/40° C./60% RH/Dark) was 95.1%, the “percentage of the sample” value ([1]; Day 30/60° C./75% RH/Dark) was 94.7% and the “percentage of the sample” value ([1]; Day 30/Light) was 95.0%. For the same compound, the “percentage of the sample” value ([1]; Day 30/RT/75% RH/Dark) was 96.1%, the “percentage of the sample” value ([1]; Day 30/RT/92.5% RH/Dark) was 93.3% and the “Minimum solubility in water at room temperature” value [2] was greater than 300 mg/mL.
For `CC(C)[C@H](N)C(=O)OCN1C(=O)CCC(N2C(=O)c3cccc(N)c3C2=O)C1=O` (some centres unmarked) [Compound 1], the “Minimum solubility in water at room temperature” value [2] was 1 mg/mL.
In the case of `NCC(=O)OCN1C(=O)CCC(N2C(=O)c3cccc(N)c3C2=O)C1=O` (centres unmarked) [Hydrochloride salt of compound 2], the “percentage of the sample” value ([1]; Day 0) is reported as 96.1%, the “percentage of the sample” value ([1]; Day 10/40° C./60% RH/Dark) is reported as 43.5% and the “percentage of the sample” value ([1]; Day 10/60° C./75% RH/Dark) is reported as 13.3%. For the same compound, the “percentage of the sample” value ([1]; Day 10/RT/92.5% RH/Dark) was 93.3% and the solubility [2] was greater than 300 mg/mL.
Work on `C[C@H](N)C(=O)OCN1C(=O)CCC(N2C(=O)c3cccc(N)c3C2=O)C1=O` (some centres unmarked) [Hydrochloride salt of compound 3] yielded a solubility [2] greater than 300 mg/mL.
For `Nc1cccc2c1C(=O)N(C1CCC(=O)NC1=O)C2=O` (centres unmarked) [Pomalidomide], the solubility ([3]; 0.1 mol/L hydrochloric acid) is listed as 0.0189 mg/mL (≈ 69.2 µM), the solubility ([3]; acetate buffer (pH 4.5)) is listed as 0.0187 mg/mL (≈ 68.4 µM) and the solubility ([3]; phosphate buffer (pH 6.8)) is listed as 0.017 mg/mL (≈ 62.2 µM). The solubility ([3]; purified water) was 0.0178 mg/mL (≈ 65.1 µM) and the “solubility of pomalidomide in water” value ([3]; water) was “about 0.01 mg/ml”.
In the case of `CC[C@H](C)[C@H](N)C(=O)OCN1C(=O)CCC(N2C(=O)c3cccc(N)c3C2=O)C1=O` (some centres unmarked) [Hydrochloride salt of compound 5], the solubility [2] is reported as greater than 300 mg/mL.
`Nc1cccc2c1C(=O)N(C1CCC(=O)N(COC(=O)[C@@H](N)Cc3ccccc3)C1=O)C2=O` (some centres unmarked) [Hydrochloride salt of compound 7] showed a solubility [2] greater than 300 mg/mL.
Compound `Nc1cccc2c1C(=O)N(C1CCC(=O)N(COC(=O)[C@@H]3CCCN3)C1=O)C2=O` (some centres unmarked) [Hydrochloride salt of compound 6] has a solubility [2] greater than 300 mg/mL.
Work on `CC(C)C[C@H](N)C(=O)OCN1C(=O)CCC(N2C(=O)c3cccc(N)c3C2=O)C1=O` (some centres unmarked) [Hydrochloride salt of compound 4] yielded a solubility [2] greater than 300 mg/mL.
